The values below come from patent US10758534B2 (Vertex Pharmaceuticals Incorporated, priority 2014, dated 2020).

T1 sequence (P13569 with tags, fused parts or gaps DEL508-508): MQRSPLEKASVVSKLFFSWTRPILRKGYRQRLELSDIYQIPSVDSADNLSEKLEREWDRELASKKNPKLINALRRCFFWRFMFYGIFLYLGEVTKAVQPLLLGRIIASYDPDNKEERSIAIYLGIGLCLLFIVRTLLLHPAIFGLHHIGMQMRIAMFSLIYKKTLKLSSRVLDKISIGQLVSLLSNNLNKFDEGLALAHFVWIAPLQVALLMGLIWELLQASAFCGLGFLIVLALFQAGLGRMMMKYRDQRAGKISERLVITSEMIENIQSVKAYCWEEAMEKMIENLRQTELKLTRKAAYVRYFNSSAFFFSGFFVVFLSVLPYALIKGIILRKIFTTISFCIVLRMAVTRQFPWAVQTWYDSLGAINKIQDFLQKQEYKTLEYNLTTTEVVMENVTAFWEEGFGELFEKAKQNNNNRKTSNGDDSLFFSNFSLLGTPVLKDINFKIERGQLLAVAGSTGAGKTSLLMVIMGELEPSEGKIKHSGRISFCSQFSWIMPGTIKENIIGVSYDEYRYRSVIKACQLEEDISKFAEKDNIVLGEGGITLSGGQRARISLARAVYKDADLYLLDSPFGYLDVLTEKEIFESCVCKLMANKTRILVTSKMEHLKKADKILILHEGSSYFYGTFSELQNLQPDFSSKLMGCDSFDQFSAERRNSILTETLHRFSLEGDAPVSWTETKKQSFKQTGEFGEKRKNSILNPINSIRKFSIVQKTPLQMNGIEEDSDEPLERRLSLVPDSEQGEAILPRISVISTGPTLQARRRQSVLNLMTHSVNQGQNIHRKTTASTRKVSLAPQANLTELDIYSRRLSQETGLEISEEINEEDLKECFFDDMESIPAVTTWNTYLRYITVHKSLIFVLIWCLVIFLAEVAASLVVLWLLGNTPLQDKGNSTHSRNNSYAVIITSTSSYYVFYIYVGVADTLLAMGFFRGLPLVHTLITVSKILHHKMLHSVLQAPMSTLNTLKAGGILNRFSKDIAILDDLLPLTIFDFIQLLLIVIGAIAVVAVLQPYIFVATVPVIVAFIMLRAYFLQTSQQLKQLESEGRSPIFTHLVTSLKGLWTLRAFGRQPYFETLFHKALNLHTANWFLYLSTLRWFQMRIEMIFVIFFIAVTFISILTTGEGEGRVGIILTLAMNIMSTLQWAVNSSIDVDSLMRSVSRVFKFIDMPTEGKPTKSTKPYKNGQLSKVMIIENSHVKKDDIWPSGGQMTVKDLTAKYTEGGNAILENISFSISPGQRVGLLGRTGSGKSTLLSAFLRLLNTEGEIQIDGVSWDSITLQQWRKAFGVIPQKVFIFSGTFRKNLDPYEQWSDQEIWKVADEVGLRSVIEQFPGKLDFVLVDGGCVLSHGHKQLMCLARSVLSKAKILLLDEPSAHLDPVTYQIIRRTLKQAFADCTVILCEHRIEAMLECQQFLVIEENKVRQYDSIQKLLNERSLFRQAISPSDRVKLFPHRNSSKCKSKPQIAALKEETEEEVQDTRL

This experiment concerns the target T1, F508del (Homo sapiens, UniProt P13569, DEL508-508).
T1 construct: expressed in transfected cells
Put plainly: Protocol 1: membrane potential optical assay (FLIPR III, voltage sensing dye), identification of potentiator compounds. To be noted: Table 3, compounds of Table 1. The experiment is classed as cell-based. The essentials: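 Gating potentiation is read as a membrane-potential fluorescence change (FLIPR III, voltage-sensing dye) after one forskolin addition under a Cl− gradient, with gluconate replacing chloride, pH 7.4. Cells are F508del-expressing NIH3T3 mouse fibroblasts held 24 h at 27 °C and exposed to compound before dye loading.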
In the case of `CC(C)Oc1ccc(-c2ccc(C(=O)NS(=O)(=O)c3cccc(N)n3)c(N3CCCC3C3CC3)n2)cn1` (stereo not drawn) [Compound 928, N-[(6-amino-2-pyridyl)sulfonyl]-2-(2-cyclopropylpyrrolidin-1-yl)-6-(6-isopropoxy-3-pyridyl)pyridine-3-carboxamide], the EC30 result is “+++ (“+++” means <3 uM)”.
The entry for `CC1CN(c2ncccc2C(=O)NS(=O)(=O)c2cccc(N3CCCC(c4ccccc4)C3)n2)C(C)(C)C1` (stereo not drawn) [Compound 1755, N—[[6-(3-phenyl-1-piperidyl)-2-pyridyl]sulfonyl]-2-(2,2,4-trimethylpyrrolidin-1-yl)pyridine-3-carboxamide] is “++ (“++” means between 3 uM and 10 uM)”; for `Cc1ccc(OCC(C)C)nc1-c1ccc(C(=O)NS(=O)(=O)c2cccc(N)n2)c(N2CC(C)CC2(C)C)n1` (stereo not drawn) [Compound 1659, N-[(6-amino-2-pyridyl)sulfonyl]-6-(6-isobutoxy-3-methyl-2-pyridyl)-2-(2,2,4-trimethylpyrrolidin-1-yl)pyridine-3-carboxamide] it is “+++ (“+++” means <3 uM)”; for `CC(C)COc1cc(F)cc(-c2ccc(C(=O)NS(=O)(=O)c3cccc(N)n3)c(C3=CCC(C)(C)CC3)n2)c1` [Compound 1493, N-[(6-amino-2-pyridyl)sulfonyl]-2-(4,4-dimethylcyclohexen-1-yl)-6-(3-fluoro-5-isobutoxy-phenyl)pyridine-3-carboxamide] it is “+++ (“+++” means <3 uM)”.
The entry for `CCCN(CC1CC1)c1nc(-c2cc(F)cc(OCC(C)C)c2)ccc1C(=O)NS(=O)(=O)c1cccc(N)n1` [Compound 881, N-[(6-amino-2-pyridyl)sulfonyl]-2-[cyclopropylmethyl(propyl)amino]-6-(3-fluoro-5-isobutoxy-phenyl)pyridine-3-carboxamide] is “+++ (“+++” means <3 uM)”; for `CC(C)COc1cc(F)cc(-c2ccc(C(=O)NS(=O)(=O)c3cccc(N)n3)c(OC3CCC(F)(F)CC3)n2)c1` [Compound 961, N-[(6-amino-2-pyridyl)sulfonyl]-2-(4,4-difluorocyclohexoxy)-6-(3-fluoro-5-isobutoxy-phenyl)pyridine-3-carboxamide] it is “+++ (“+++” means <3 uM)”; for `CC(C)COc1cc(F)cc(-c2ccc(C(=O)NS(=O)(=O)c3cccc(N)n3)c(N3CCC(C)C3(C)C)n2)c1` (stereo not drawn) [Compound 1121, N-[(6-amino-2-pyridyl)sulfonyl]-6-(3-fluoro-5-isobutoxy-phenyl)-2-(2,2,3-trimethylpyrrolidin-1-yl)pyridine-3-carboxamide] it is “+++ (“+++” means <3 uM)”.
As to `CC(C)Oc1ccc(-c2ccc(C(=O)NS(=O)(=O)c3cccc(N)n3)c(NC3CCc4ccccc43)n2)cn1` (stereo not drawn) [Compound 935, N-[(6-amino-2-pyridyl)sulfonyl]-2-(indan-1-ylamino)-6-(6-isopropoxy-3-pyridyl)pyridine-3-carboxamide], the EC30 result is “++ (“++” means between 3 uM and 10 uM)”.
With `Cc1ccc(-c2ccc(C(=O)NS(=O)(=O)c3ccc[nH]c3=O)c(Oc3c(C)cc(C)cc3C)n2)cc1` [Compound 1300, N-[(2-oxo-1H-pyridin-3-yl)sulfonyl]-6-(p-tolyl)-2-(2,4,6-trimethylphenoxy)pyridine-3-carboxamide] the entry was “+++ (“+++” means <3 uM)”.
`CC(C)COc1cc(F)cc(-c2ccc(C(=O)NS(=O)(=O)c3ccn[nH]3)c(N3CCC4(CCC4)CC3)n2)c1` [Compound 944, 2-(7-azaspiro[3.5]nonan-7-yl)-6-(3-fluoro-5-isobutoxy-phenyl)-N-(1H-pyrazol-5-ylsulfonyl)pyridine-3-carboxamide]: the EC30 result was “+++ (“+++” means <3 uM)”.
As for `COc1ncccc1S(=O)(=O)NC(=O)C1CCc2ccccc2CN1Cc1c(C)cc(C)cc1C` (stereo not drawn) [Compound 1342, N-[(2-methoxy-3-pyridyl)sulfonyl]-2-[(2,4,6-trimethylphenyl)methyl]-1,3,4,5-tetrahydro-2-benzazepine-3-carboxamide], the EC30 entry is listed as “+++ (“+++” means <3 uM)”.
As for `CCC1CCC(c2ccc(C(=O)NS(=O)(=O)c3cccc(N)n3)c(Oc3c(C)cc(C)cc3C)n2)CC1` (stereo not drawn) [Compound 1475, N-[(6-amino-2-pyridyl)sulfonyl]-6-(4-ethylcyclohexyl)-2-(2,4,6-trimethylphenoxy)pyridine-3-carboxamide], the EC30 entry is “+++ (“+++” means <3 uM)”.
With `Cc1ccc(-c2nc3c(cc2C(=O)NS(=O)(=O)c2ccn[nH]2)CCCC3(C)C)cc1` [Compound 1292, 8,8-dimethyl-2-(p-tolyl)-N-(1H-pyrazol-5-ylsulfonyl)-6,7-dihydro-5H-quinoline-3-carboxamide] the entry was “+ (“+” means greater than 10 uM)”; with `Cc1cc(C)c(Oc2nc(-c3cnc(N4CCCC4)nc3)ccc2C(=O)NS(=O)(=O)c2cccc(N)n2)c(C)c1` [Compound 1275, N-[(6-amino-2-pyridyl)sulfonyl]-6-(2-pyrrolidin-1-ylpyrimidin-5-yl)-2-(2,4,6-trimethylphenoxy)pyridine-3-carboxamide], “+++ (“+++” means <3 uM)”.
With `Cc1cc(C)c(Oc2nc(-c3cn(C)nc3C(F)(F)F)ccc2C(=O)NS(=O)(=O)c2cccc(N)n2)c(C)c1` [Compound 812, N-[(6-amino-2-pyridyl)sulfonyl]-6-[1-methyl-3-(trifluoromethyl)pyrazol-4-yl]-2-(2,4,6-trimethylphenoxy)pyridine-3-carboxamide] the entry was “++ (“++” means between 3 uM and 10 uM)”.
Turning to `CC(C)COc1cc(F)cc(-c2ccc(C(=O)NS(=O)(=O)c3cccc(N)n3)c(OCCCCc3ccncc3)n2)c1` [Compound 1687, N-[(6-amino-2-pyridyl)sulfonyl]-6-(3-fluoro-5-isobutoxy-phenyl)-2-[4-(4-pyridyl)butoxy]pyridine-3-carboxamide], the EC30 result is “+++ (“+++” means <3 uM)”.
For `CCOc1cc(C)cc(-c2ccc(C(=O)NS(=O)(=O)c3cccc(N)n3)c(N3C[C@@H](C)CC3(C)C)n2)c1` [Compound 1488, N-[(6-amino-2-pyridyl)sulfonyl]-6-(3-ethoxy-5-methyl-phenyl)-2-[(4S)-2,2,4-trimethylpyrrolidin-1-yl]pyridine-3-carboxamide], the EC30 entry was “+++ (“+++” means <3 uM)”.
The entry for `COc1cc(C)c(-c2ccc(C(=O)NS(=O)(=O)c3cccc(N)n3)c(N3CC(C)CC3(C)C)n2)cc1C` (stereo not drawn) [Compound 1259, N-[(6-amino-2-pyridyl)sulfonyl]-6-(4-methoxy-2,5-dimethyl-phenyl)-2-(2,2,4-trimethylpyrrolidin-1-yl)pyridine-3-carboxamide] is “+++ (“+++” means <3 uM)”; for `CCOc1cccc2c1CN(Cc1ccc(OC(C)C)nc1)C2(C)C(=O)NS(=O)(=O)c1cccc(N)n1` (stereo not drawn) [Compound 1662, N-[(6-amino-2-pyridyl)sulfonyl]-4-ethoxy-2-[(6-isopropoxy-3-pyridyl)methyl]-1-methyl-isoindoline-1-carboxamide] it is “++ (“++” means between 3 uM and 10 uM)”.
The entry for `C[C@@H]1CN(c2nc(C(C)(C)C)ccc2C(=O)NS(=O)(=O)c2ccc[nH]c2=O)C(C)(C)C1` [Compound 1765, 6-tert-butyl-N-[(2-oxo-1H-pyridin-3-yl)sulfonyl]-2-[(4S)-2,2,4-trimethylpyrrolidin-1-yl]pyridine-3-carboxamide] is “+++ (“+++” means <3 uM)”; for `CC(C)Oc1ccc(-c2ccc(C(=O)NS(=O)(=O)c3ccc(O)c(N)n3)c(N3[C@H](C)CC[C@@H]3C)n2)cn1` [Compound 1375, N-[(6-amino-5-hydroxy-2-pyridyl)sulfonyl]-2-[(2S,5R)-2,5-dimethylpyrrolidin-1-yl]-6-(6-isopropoxy-3-pyridyl)pyridine-3-carboxamide] it is “++ (“++” means between 3 uM and 10 uM)”.
With `COc1ccc(S(=O)(=O)NC(=O)c2ccc(-c3cc(F)cc(OCC(C)C)c3)nc2N2C[C@@H](C)CC2(C)C)cc1` [Compound 1876, 6-(3-fluoro-5-isobutoxy-phenyl)-N-(4-methoxyphenyl)sulfonyl-2-[(4S)-2,2,4-trimethylpyrrolidin-1-yl]pyridine-3-carboxamide] the entry was “+++ (“+++” means <3 uM)”; with `COc1cccc(-c2ccc(C(=O)NS(=O)(=O)c3cccc(N)n3)c(N3[C@H](C)CC[C@@H]3C)n2)n1` [Compound 1141, N-[(6-amino-2-pyridyl)sulfonyl]-2-[(2S,5R)-2,5-dimethylpyrrolidin-1-yl]-6-(6-methoxy-2-pyridyl)pyridine-3-carboxamide], “++ (“++” means between 3 uM and 10 uM)”.
Regarding `CC(C)Oc1ccc(-c2ccc(C(=O)NS(=O)(=O)c3cccc(N)n3)c(N3CCCC3(C)C)n2)cn1` [Compound 834, N-[(6-amino-2-pyridyl)sulfonyl]-2-(2,2-dimethylpyrrolidin-1-yl)-6-(6-isopropoxy-3-pyridyl)pyridine-3-carboxamide], the EC30 result is listed as “+++ (“+++” means <3 uM)”.
Take `C[C@@H]1CN(c2nc(C(C)(C)C)c(/C=C/C(=O)O)cc2C(=O)NS(=O)(=O)c2cccc(N)n2)C(C)(C)C1` [Compound 1547, (E)-3-[5-[(6-amino-2-pyridyl)sulfonylcarbamoyl]-2-tert-butyl-6-[(4S)-2,2,4-trimethylpyrrolidin-1-yl]-3-pyridyl]prop-2-enoic acid]: the EC30 result is “++ (“++” means between 3 uM and 10 uM)”.
The entry for `Cc1cc(C)c(Oc2nc(C3(C)CC3)ccc2C(=O)NS(=O)(=O)c2cccc(N)c2)c(C)c1` [Compound 826, N-(3-aminophenyl)sulfonyl-6-(1-methylcyclopropyl)-2-(2,4,6-trimethylphenoxy)pyridine-3-carboxamide] is “+++ (“+++” means <3 uM)”; for `CC(C)COc1cc(F)cc(-c2ccc(C(=O)NS(=O)(=O)c3cccc(N)n3)c(OC3COC3)n2)c1` [Compound 872, N-[(6-amino-2-pyridyl)sulfonyl]-6-(3-fluoro-5-isobutoxy-phenyl)-2-(oxetan-3-yloxy)pyridine-3-carboxamide] it is “++ (“++” means between 3 uM and 10 uM)”.
